Source: US9446048B2, “Methods for treating leukemia and disorders mediated by CBFβ and RUNX1 proteins” (The United States of America, as represented by the …, priority 2011, dated 2016)

Tests used:
[1] = system: leukemia cells with CBF fusion genes; assay: Selective cytotoxicity for CBF leukemia cell lines (ATPlite cellular ATP content); assay type: cell-based; settings: 24 hours; for killing of leukemia cells with CBF fusion genes versus without: ATP content
Experimental: FIG. 5 depicts the results of treating leukemia cells with or without CBF fusion genes with Ro5-3335. […] The cellular ATP content was measured by a luciferase based viability assay with −100% as 100% cell killing.
Cell lines including HeLa, HL-60, Kasumi-1, Kasumi-6, ME-1, RS4 and REH were obtained from American Type Culture Collection (ATCC, Manassas, Va.). Cells in suspension at a density of 100,000 cells/ml were grown in a T175 flask with 20% FBS RPMI-1640 medium except 20% FBS IMDM medium for HL-60 cell line and the medium was renewed every 2-3 days. The cells were centrifuged and resuspended in 10% FBS phenol free OPTI-MEM medium which were seeded at 500 cells/well in 5 uL in 1536-well white solid-bottom plates using a Multidrop Combi dispenser (ThermoFisher Scientific Inc., Waltham, Mass.). The assay plates were incubated at 37° C. with 5% CO2 and 95% humidity for 2 hours prior to compound addition. Subsequently, 23 nL/well compound DMSO solutions or DMSO controls were transferred to the assay plates using a Kalypsys pintool workstation (Kalypsys, San Diego, Calif.). The plates were then incubated at 37° C. with 5% CO2 and 95% humidity for 24 hours followed by an addition of 4 uL/well of ATPlite reagent (PerkinElmer). After a 20 minute incubation, the plates were measured in the luminescence mode using a ViewLux plate reader (Perkinelmer, Waltham, Mass.).

RUNX1-CBFβ binding = molecular target: T1, RUNX1-CBFβ binding (Homo sapiens, UniProt Q01196+Q13951); assay: AlphaScreen high-throughput screen for blocking RUNX1-CBFβ interaction; settings: HTS for RUNX1-CBFβ interaction inhibitors
T1 construct: The full length biotinylated RUNX1, histagged CBFβ and untagged CBFβ proteins were purchased; biotin (biotinylated); purchased Genecopoeia (Germantown, Md.); host or cells: wheat germ extract cell-free protein translation system
Experimental: An Amplified Luminescence Proximity Homogenous Assay (ALPHA) Screen format (PerkinElmer) was used to develop an assay for identifying compounds that affect RUNX1-CBFβ binding (see FIG. 3) optimized for high throughput screening (HTS). The full length biotinylated RUNX1, histagged CBFβ and untagged CBFβ proteins were purchased from Genecopoeia (Germantown, Md.) that were prepared in a wheat germ extract cell-free protein translation system. All three proteins were purified using an affinity column and FPLC chromatography. The assay buffer was comprised of 25 mM HEPES (pH 7.4), 110 mM KC1, 2 mM MgCl2, 10 mM NaCl, 5 mM DTT, and 0.01% Tween-20. The AlphaScreen assay platform (PerkinElmer) was applied for the measurement of interaction of Runx1 protein with the CBFb protein. The assay was developed in 384-well plate format and optimized in 1536-well plate format for high throughput screening. […] The assay plate was measured in an AlphaScreen mode using an Envision plate reader (Perkin Elmer, Waltham, Mass.). […]
Synthesized, tagged RUNX1 and CBFβ were used in the assay and a total of over 240,000 compounds at 7 concentrations each were screened with this assay. […] Confirmatory ALPHA and HTRF (homogeneous time resolved fluorescence) assays were performed to prioritize compounds for their ability to inhibit RUNX1-CBFβ interaction.

zebrafish embryos = assay: Blockage of zebrafish embryonic definitive hematopoiesis (cd41-GFP / lck-GFP transgenic embryos); assay type: in vivo, zebrafish (Danio rerio); settings: for numbers of cd41-GFP cells in embryos: FIG. 4C, cd41-GFP transgenic embryos; for definitive hematopoiesis in zebrafish embryos: compounds added to water at 24 hours post fertilization, cd41-GFP or lck-GFP embryos
Experimental: Candidate compounds were tested in a zebrafish model to determine if they specifically block RUNX1-CBFβ interaction. RUNX1 and CBFβ are required for definitive hematopoiesis during embryogenesis, since RUNX1 and CBFβ knockout mouse embryos are devoid of definitive blood cells. Thus, inhibitors of RUNX1 and CBFβ should also be able to block definitive hematopoiesis as well. Standard protocols were used to breed and raise embryos from the cd41-GFP transgenic fish in which GFP marks hematopoietic stem cells, in addition to thrombocytes during embryogenesis, and from the lck-GFP transgenic fish in which GFP marks the T lineage cells. (See Westerfield M, ed The Zebrafish Book, A guide for the laboratory use of zebrafish (Danio rerio). Edition 3 ed. Eugene, Oreg.: University of Oregon Press; 1995; Lin et al. Analysis of thrombocyte development in CD41-GFP transgenic zebrafish. Blood. Dec. 1, 2005; 106(12):3803-3810; Bertrand et al. CD41+ cmyb+ precursors colonize the zebrafish pronephros by a novel migration route to initiate adult hematopoiesis. Development. May 2008; 135(10):1853-1862; Bertrand et al. Definitive hematopoiesis initiates through a committed erythromyeloid progenitor in the zebrafish embryo. Development. December 2007; 134(23):4147-4156; Kissa et al. Live imaging of emerging hematopoietic stem cells and early thymus colonization. Blood. Feb. 1, 2008; 111(3):1147-1156; Langenau et al. In vivo tracking of T cell development, ablation, and engraftment in transgenic zebrafish. Proc Natl Acad Sci USA. May 11, 2004; 101(19):7369-7374). Compounds were added to the water at 24 hours post fertilization and the final DMSO concentrations were less than 0.1%. The embryos were then observed, photographed, and videotaped with a Leica MZ16F dissecting scope, equipped with a Leica DC500 camera and a BioVision Vision-Mac™ video system. The numbers of GFP+ cells in each embryo were counted manually.

[2] = system: CBF leukemia cells (CBFB-MYH11); assay: Leukemia transplantation murine model (Cbfb-MYH11 knock-in leukemia cells); assay type: in vivo, mouse; settings: for leukemia burden in mice: 300 mg/kg/day in transgenic dough, similar efficacy as standard chemotherapy drugs; for survival of leukemic mice, combination with cytarabine: 300 mg/kg/p.o. days 10-40 plus cytarabine days 10-15
Experimental: Compound Ro5-3335 was tested in a CBFβ-MYH11 knock-in mouse model that faithfully models human leukemia with this fusion gene. The mouse model is described in Castilla et al, Failure of embryonic hematopoiesis and lethal hemorrhages in mouse embryos heterozygous for a knocked-in leukemia gene CBFB-MYH11. Cell. 1996; 87(4):687-696; Castilla et al., The fusion gene Cbfb-MYH11 blocks myeloid differentiation and predisposes mice to acute myelomonocytic leukemia. Nat. Genet. October 1999; 23[2]:144-146. The CBFB-MYH11 fusion gene in this mouse model initiates leukemia development with high penetrance but variable latency. However, when the leukemia cells are transplanted, the recipient mice develop leukemia with very short, consistent latency and 100% penetrance.
The B6129F1/J mice were used for injection of leukemia cells developed in the Cbfb-MYH11 knock-in mice. The recipient mice were irradiated at 900 rads before the leukemia cells were given through retro-orbital vein injection, typically at around 250,000-500,000 cells/mouse. Ten days after leukemia cell injection, the mice were given the candidate compounds Ro5-3335 and Ro24-7429 in transgenic dough, at 300 mg/kg/day for up to 30 days. Cytarabine was given for 6 consecutive days starting on day 10 after transplantation, at 100 mg/kg/day IP, and doxorubicin was given for 4 consecutive days starting on day 10 after transplantation, at 3 mg/kg/day IP. The mice were followed by daily inspection and bi-weekly analysis of peripheral blood, which was collected by retro-orbital bleeding. Leukemia cells in the peripheral blood were evaluated by FACS analysis and by blood smear observation. Moribund mice were sacrificed and necropsy conducted to ascertain the diagnosis of terminal leukemia.

[3] = was reported; cited from earlier work

T1 sequence (Q01196 whole entry): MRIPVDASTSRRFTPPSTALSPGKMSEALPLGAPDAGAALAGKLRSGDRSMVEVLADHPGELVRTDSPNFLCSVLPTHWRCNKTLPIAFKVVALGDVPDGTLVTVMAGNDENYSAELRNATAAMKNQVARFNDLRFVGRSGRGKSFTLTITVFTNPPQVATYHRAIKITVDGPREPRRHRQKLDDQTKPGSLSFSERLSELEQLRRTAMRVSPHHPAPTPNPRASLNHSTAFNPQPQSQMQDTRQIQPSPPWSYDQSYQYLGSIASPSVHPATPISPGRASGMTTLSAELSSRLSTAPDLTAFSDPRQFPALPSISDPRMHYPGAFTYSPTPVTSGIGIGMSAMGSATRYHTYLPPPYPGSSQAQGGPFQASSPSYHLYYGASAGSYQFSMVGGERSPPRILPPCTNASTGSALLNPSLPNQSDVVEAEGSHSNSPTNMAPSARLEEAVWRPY
T1 sequence (Q13951 whole entry): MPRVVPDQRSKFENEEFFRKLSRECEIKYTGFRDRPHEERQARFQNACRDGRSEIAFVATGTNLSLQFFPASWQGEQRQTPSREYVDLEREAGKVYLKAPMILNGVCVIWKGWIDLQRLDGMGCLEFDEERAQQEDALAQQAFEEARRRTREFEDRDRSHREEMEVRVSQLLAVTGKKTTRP

Row | Structure (SMILES) | killing of leukemia cells with CBF fusion genes versus without [1] | activity in the original screening (RUNX1-CBFβ binding) | numbers of cd41-GFP cells in embryos (zebrafish embryos) | definitive hematopoiesis in zebrafish embryos (zebrafish embryos) | definitive hematopoiesis in zebrafish embryos (zebrafish embryos; listed as J1) | leukemia burden in mice [2] | survival of leukemic mice, combination with cytarabine [2] | leukemia cell burden (c-kit+ cells) ([2]; FIG. 9, 10 days after treatments started) | cell killing potency for CBF leukemia cell lines relative to leukemia cell lines without CBF fusion genes ([1]; ATP content IC50 comparison) | definitive hematopoiesis in zebrafish embryos (zebrafish embryos; listed as J2) | definitive hematopoiesis in zebrafish embryos (zebrafish embryos; listed as J8) | toxicological profile relative to Ro5-3335 [3] | survival of leukemic mice, single agent ([2]; second experiment, cytarabine on days 10-15)
1 | NCC(=O)Nc1ccc(Cl)cc1C(=O)c1ccc[nH]1 [MLS000766105, 2-amino-N-[4-chloro-2-(1H-pyrrole-2-carbonyl)phenyl]acetamide] | preferentially killed | active | reduced numbers | significant reduction | reduce definitive hematopoiesis | – | – | – | – | – | – | – | –
2 | O=C1CN=C(c2ccc[nH]2)c2cc(Cl)ccc2N1 [Ro5-3335, 7-chloro-5-(1H-pyrrol-2-yl)-1,3,-dihydro-1,4-benzodiaepin-2-one] | preferentially killed | – | reduced numbers | significant reduction | – | significantly reduced | synergy | reduced leukemia cell burden | 6-50 fold | reduce definitive hematopoiesis | – | – | –
3 | CNC1=Nc2ccc(Cl)cc2C(c2ccc[nH]2)=NC1 [Ro24-7429, 7-chloro-N-methyl-5-1(1H-pyrrol-2-yl)-3H-1,4-benzodiazepin-2-amine] | – | – | reduced numbers | significant reduction | – | significantly reduced | trend of synergy | – | – | – | reduce definitive hematopoiesis | improved toxicological profile | –
4 | Nc1ccn([C@@H]2O[C@H](CO)[C@@H](O)[C@@H]2O)c(=O)n1 [cytarabine, reference compound] | – | – | – | – | – | – | – | – | – | – | – | – | failed to extend survival
